Reference: patent US9791444B2, “Method for differentially quantifying naturally processed HLA-restricted peptides for cancer, autoimmune and infectious diseases immunotherapy development” (IMMATICS BIOTECHNOLOGIES GMBH, priority 2010, dated 2017)

System: CD8+ T cells from HLA-A*24 healthy donors
Assay: In vitro immunogenicity: in vitro priming of CD8+ T cells with pMHC/anti-CD28 coated beads (aAPC), A*2402 multimer staining
Assay type: cell-based, human
Conditions: HLA-A*2402 restricted, three stimulation cycles; for Positive wells/wells tested [%]: at least 24 wells evaluable for each peptide, positive well = at least 1% specific multimer+ among CD8+ and at least 10x median of negative controls; for Positive donors/donors tested [%]: at least two donors evaluable for each peptide
Text: To get information regarding the immunogenicity of the TUMAPs of the present invention, we performed investigations using a well established in vitro stimulation platform already described by (Walter, S, Herrgen, L, Schoor, O, Jung, G, Wernet, D, Buhring, H J, Rammensee, H G, and Stevanovic, S; 2003, Cutting edge: predetermined avidity of human CD8 T cells expanded on calibrated MHC/anti-CD28-coated microspheres, J. Immunol., 171, 4974-4978).
In order to perform in vitro stimulations by artificial antigen presenting cells (aAPC) loaded with peptide-MHC complex (pMHC) and anti-CD28 antibody, we first isolated CD8 T cells from fresh HLA-A*24 leukapheresis products of healthy donors obtained from the Blood Bank Tuebingen.
CD8 T cells were either directly enriched from the leukapheresis product or PBMCs (peripheral blood mononuclear cells) were isolated first by using standard gradient separation medium (PAA, Cölbe, Germany). Isolated CD8 lymphocytes or PBMCs were incubated until use in T-cell medium (TCM) consisting of RPMI-Glutamax (Invitrogen, Karlsruhe, Germany) supplemented with 10% heat inactivated human AB serum (PAN-Biotech, Aidenbach, Germany), 100 U/ml Penicillin/100 μg/ml Streptomycin (Cambrex, Cologne, Germany), 1 mM sodium pyruvate (CC Pro, Oberdorla, Germany), 20 μg/ml Gentamycin (Cambrex). 2.5 ng/ml IL-7 (PromoCell, Heidelberg, Germany) and 10 U/ml IL-2 (Novartis Pharma, Nürnberg, Germany) were also added to the TCM at this step. Isolation of CD8+ lymphocytes was performed by positive selection using CD8 MicroBeads (Miltenyi Biotec, Bergisch-Gladbach, Germany).
Generation of pMHC/anti-CD28 coated beads, T-cell stimulations and readout was performed as described before (Walter et al. 4974-78) with minor modifications. Briefly, biotinylated peptide-loaded recombinant HLA-A*2402 molecules lacking the transmembrane domain and biotinylated at the carboxy terminus of the heavy chain were produced. The purified costimulatory mouse IgG2a anti human CD28 Ab 9.3 (Jung, Ledbetter, and Muller-Eberhard 4611-15) was chemically biotinylated using Sulfo-N-hydroxysuccinimidobiotin as recommended by the manufacturer (Perbio, Bonn, Germany).
800.000 beads/200 μl were coated in 96-well plates in the presence of 600 ng biotin anti-CD28 plus 200 ng relevant biotin-pMHC (high density beads). Stimulations were initiated in 96-well plates by co-incubating 1×10^6 CD8+ T cells with 2×10^5 washed coated beads in 200 μl TCM supplemented with 5 ng/ml IL-12 (PromoCell) for 3-4 days at 37° C. Half of the medium was then exchanged by fresh TCM supplemented with 80 U/ml IL-2 and incubating was continued for 3-4 days at 37° C. This stimulation cycle was performed for a total of three times. Finally, multimeric analyses were performed by staining the cells with Live/dead-Aqua dye (Invitrogen, Karlsruhe, Germany), CD8-FITC antibody clone SK1 (BD, Heidelberg, Germany) and PE- or APC-coupled A*2402 MHC multimers. For analysis, a BD LSRII SORP cytometer equipped with appropriate lasers and filters was used. Peptide specific cells were calculated as percentage of total CD8+ cells. Evaluation of multimeric analysis was done using the FlowJo software (Tree Star, Oreg., USA).

| Sequence | Positive wells/wells tested [%] | Positive donors/donors tested [%] |
| --- | --- | --- |
| AYAIIKEEL (listed as Homo sapiens) [ATAD2-001] | 4 | 50 |
| AYLVYTDRL (listed as Homo sapiens) [PPAP2C-001] | 54 | 100 |
| FYISPVNKL (listed as Homo sapiens) [AVL9-001] | 50 | 100 |
| HYKPTPLYF (listed as Homo sapiens) [SMC4-001] | 9 | 75 |
| IYNGKLFDLL (listed as Homo sapiens) [KIF2C-001] | 2 | 13 |
| KYNDTFWKEF (listed as Homo sapiens) [HSP90B1-001] | 4 | 50 |
| LYQILQGIVF (listed as Homo sapiens) [CDC2-001, gastric cancer associated TUMAP encoded by CDK1] | 28 | 88 |
| NYEETFPHI (listed as Homo sapiens) [MUC6-001] | 21 | 50 |
| NYLLYVSNF [MMP11-001] | 11 | 33 |
| NYLLYVSNF [MST1R-001] (listed as Homo sapiens) | 14 | 50 |
| NYLPFIMEL (listed as Homo sapiens) [UCHL5-001] | 14 | 75 |
| QYASRFVQL (listed as Homo sapiens) [PLK4-001] | 5 | 60 |
| RFLSGIINF (listed as Homo sapiens) [NUF2-002] | 4 | 50 |
| RYLWATVTI (listed as Homo sapiens) [ASPM-001] | 3 | 17 |
| SYIDVLPEF (listed as Homo sapiens) [MET-006] | 22 | 63 |
| SYNPLWLRI (listed as Homo sapiens) [ASPM-002, gastric cancer associated TUMAP encoded by ASPM] | 31 | 63 |
| TYGNLLDYL (listed as Homo sapiens) [ABL1-001] | 13 | 50 |
| VFDTAIAHLF (listed as Homo sapiens) [SIAH2-001] | 4 | 50 |
| VFIFKGNQF (listed as Homo sapiens) [MMP3-001] | 1 | 13 |
| VWSDVTPLTF [PROM1-001] | 26 | 83 |
| VYGIRLEHF (listed as Homo sapiens) [NUF2-001] | 25 | 100 |
| VYIEKNDKL (listed as Homo sapiens) [ERBB3-001] | 15 | 83 |
| VYKVVGNLL (listed as Homo sapiens) [IQGAP3-001] | 24 | 100 |
| VYTTSYQQI (listed as Homo sapiens) [NFYB-001] | 7 | 50 |
| YYNAAGFNKL (listed as Homo sapiens) [UQCRB-001] | 38 | 100 |
